Bounds are passed on as bounds.

One molecule from US20220274935A1, “PHARMACEUTICAL COMPOSITION FOR PREVENTING OR TREATING BONE DISEASES” (INDUSTRY FOUNDATION OF CHONNAM NATIONAL UNIVERSITY, priority 2019, published 2022) can be followed below.

For data set [1], the system named is hBMP2-induced osteoblast differentiation of precursor cells from mouse skull. Nature of the data set: ALP staining for analysis of osteoblast differentiation ability. Type of data set: cell-based, C57BL/6J mouse. The note with it: hBMP2 100 ng/ml, 7 days; FIG. 10. How it is done:
After collecting cells from C57BL/6J mouse calvara at the age of 3 days, the cells were seeded on a 96-well plate in an amount of 4×10^3 cells per well, and then treated with 100 ng/ml of hBMP2 as a differentiation inducer. Simultaneously with the differentiation inducer treatment, the cells were treated with the 35D35 compound and cultured for 7 days, followed by ALP staining to assess differentiation influence. Specific experimental methods and results are as follows.
Precursor cells isolated from the mouse skull were treated with hBMP2 (Bone morphogenic protein 2, Sino biological, 10426-HNAE, 100 ng/ml) to induce differentiation into osteoblasts. Differentiated osteoblasts could be discriminated through alkaline phosphatase (ALP) staining as an osteoblast-specific protein. When the progenitor cells were treated with hBMP2, each of the 35D35 compounds was also used for treatment, followed by culturing the cells for 7 days while changing the medium every 2 to 3 days. […]
After discarding the ethanol, the remaining product was washed with HBSS, followed by adding a NBT solution (Sigma, B1911) in an amount of 100 μl per well and staining for 15 minutes. […] After ALP staining, a degree of color development was measured using Image J software, and then graphed for comparison.

The subject of data set [2] is preosteoclasts. In words: MTT assay for cytotoxicity assessment (cell viability). Conditions: MCSF 30 ng/mL, concentration of 10 uM. Type of data set: cell-based, mouse. How it is done:
MTT Assay for Cytotoxicity Assessment
After treatment of preosteoclasts with 35D35 or 35D3 (=PPOA) (1-10 uM), cell viability was evaluated. Specifically, 1×10^4 cells per well were put into a 96-well plate, and only MCSF (30 ng/mL) and PPOA were cultured by day under the indicated concentration conditions. Thereafter, a cell viability assay reagent (DoGen, EZ-3000) was used with 1/10 of the volume of the medium for treatment, and then the cells were incubated at 37° C. for 30 minutes and observed at […]. […] That is, it was confirmed that there was no cytotoxicity.

The test system of data set [3] is osteoclast differentiation of monocytes isolated from the mouse bone marrow. Nature of the data set: Osteoclast differentiation inhibitory ability through TRAP staining and assay (RANKL-induced monocytes). Type of data set: cell-based. The procedure: The bone marrow of a 10-week-old female mouse was isolated from the hip bone, femur and tibia, followed by culturing the same in α-MEM medium (Gibco, 12561-056, 10% fetal bovine serum, 1% penicillin/streptomycin) containing macrophage colony stimulating factor (M-CSF, PeproTech, 315-02, 30 ng/ml) for 3 days in order to isolate only monocytes. The isolated monocytes were treated with receptor activator of nuclear factor kappa B ligand (RANKL, PeproTech, 315-11, 50 ng/ml) to induce osteoclast differentiation. During RANKL treatment, each compound (35D35, 35D5, 35D3, and 35D8) was used for treatment and the cells were cultured for 3 or 5 days so as to confirm the degree of osteoclast differentiation.
1×10^4 monocytes isolated from the mouse bone marrow were put into a 96-well plate and treated with each compound (35D35, 35D5, 35D3, and 35D8) together with RANKL, thereby confirming the effects of each compound on osteoclast differentiation ability. Using the TRAP activity assay kit (Cosmo Bio, PMC-AK04F-COS), the activity of tartrate-resistant acid phosphatase (TRAP) with increased expression during osteoclast differentiation was confirmed. […] After staining, multinuclear cells formed during osteoclast differentiation were confirmed under a microscope. Further, each well was photographed and a differentiation area ratio per total area was determined using Image J software.
Further, the effects of the 35D35 compound having excellent osteoclast production inhibitory ability with respect to osteoclast differentiation period was investigated. Specifically, BMM was divided into 5 groups (Ctrl, Period I to IV), and cultured for 4 days in a culture medium containing 30 ng/mL M-CSF and 50 ng/mL RANKL. BMMs in Period I to IV groups were exposed to 1 μM 35D35 for 24 hours on different days, respectively. After 4 days, the cells of each group were fixed, followed by TRAP staining, and then, the presence of osteoclasts was confirmed.

In data set [4] the test system is RANKL-induced F-actin belt formation in BMM. Nature of the data set: F-actin ring (belt) formation ability of differentiated osteoclasts. Type of data set: cell-based, mouse. How it is done: In order to confirm the activity of differentiated osteoclasts, F-actin ring formation ability was measured. Specifically, BMM was seeded on a 12 mm cover glass with or without compounds (35D3: 6 μM, 35D5 and 35D35: 2 μM), followed by M-CSF and LANKL treatment. After the osteoclasts were formed in the control, the osteoclasts were fixed in 4.0% paraformaldehyde for 15 minutes, and then incubated in 5% FBS and blocked for about 60 minutes. After washing with PBS, rhodamine-conjugated phalloidin (1:40) was added to each well to visualize a F-actin belt. After 20 minutes, the cells were incubated along with a DAPI (1:5000) solution for 5 minutes. After washing three times with PBS, cells were observed using a fluorescence microscope.
A F-actin size was measured using Image J.

The subject of data set [5] is osteoclast-specific genes AcP5 (TRAP), NFATc1, DC-STAMP, ATP6v0d2, MMP9 and CTSK. In words: RT-PCR of osteoclast-specific gene mRNA expression. Type of data set: cell-based, mouse. Conditions: 1 μM, compared to the control not treated (Ctrl); FIG. 8. The procedure: (§1) In order to confirm the expression degree of the osteoclast-specific gene, an mRNA expression level was measured by RT-PCR in cells treated with 35D35 (1 μM) and 35D3 (6 μM) compounds, respectively. RNA was isolated from cells differentiated into osteoclasts using an RNA extraction kit, and cDNA was synthesized from 0.5 μg of RNA, which was quantified through a spectrophotometer, using a reverse transcriptase (Takara, RR037 A). Thereafter, QRT-PCR was performed using cDNA synthesized by QuantStudio 3 real-time PCR system (Applied Biosystems). After treating the cells with lysates, immunoblotting was conducted with an anti-Ctsk antibody. At this time, β-actin was used as a loading control.

For data set [6], the system named is bone resorption ability of osteoclasts (BMM). In words: Bone resorption assay kit (fluoresceinamine-labeled calcium phosphate plate). Type of data set: cell-based, mouse. The note with it: 0.5 uM, 6 days, compared to control cells not treated (Ctrl); FIG. 7. How it is done: In addition, the bone resorption ability of 35D35 was measured using a bone resorption assay kit (Cosmo Bio, CSR-BRA). Specifically, BMM was seeded on a fluoresceinamine-labeled calcium phosphate plate, followed by 35D35 treatment with various doses. After 6 days, a fluorescence intensity was measured at absorption and emission wavelengths of 485 nm and 535 nm, respectively, using a fluorescent reader. Further, a resorption pit area was calculated using Image J. As a result, it was confirmed that the bone resorption ability was reduced by about 10% in the cells treated with 0.5 uM of 35D35, as compared to the control cells not treated with the compound (Ctrl) (see FIG. 7, scale bar=200 μm, “Con”=M-CSF+RANKL treatment group, “M”=M-CSF treatment group).

Data set [7] concerns Ctsk protein expression in osteoclasts. In words: Immunoblotting with anti-Ctsk antibody. The note with it: 35D35 1 μM compared to 35D3 6 μM; FIG. 9. Type of data set: cell-based, mouse. The procedure: as §1
A general note: In western blotting, separated proteins are transferred to a membrane and probed.

For data set [8], the system named is ovariectomized mouse model (OVX). Nature of the data set: Ovariectomized (OVX) mouse osteoporosis model, tibia micro-computed tomography. The note with it: OVX mice, intraperitoneal once every two days, after 4 weeks, microcomputer tomography; FIGS. 11 to 14. Type of data set: in vivo. How it is done:
An ovariectomized mouse model (OVX, ovariectomized mouse) with osteoporosis due to estrogen deficiency after ovariectomy in 8-week-old female mouse were prepared. Compounds (35D35, 35D5, and 35D3), respectively, were injected intraperitoneally once every two days to the ovariectomized mouse model. After 4 weeks, the tibia of each mouse was analyzed for bone density by microcomputer tomography.
FIGS. 11 to 14 show the micro-computed tomography results (Sham: the control in which the ovaries were not removed) and graphs for analysis of the micro-computed tomography results with regard to the tibia of the mouse models (*P<0.05, **P<0.01, and ***P<0.001 vs. the control, OVX. BMD: trabecular bone mineral density).

In the case of `CCC(=O)N1CCN(c2ccccc2NC(=O)COc2ccccc2Cl)CC1` [35D35, 2-(2-chlorophenoxy)-N-[2-(4-propionyl-1-piperazinyl)phenyl]acetamide], the “effect on osteoblast differentiation (ALP staining intensity)” value in data set [1] is on record as “did not affect osteoblasts”. For the same molecule, in data set [2], the “cytotoxicity (cell viability, apoptosis effects)” value is on record as “apoptosis effects were not exhibited”. The “osteoclast differentiation by exposure period (TRAP staining)” value in data set [3] (1 μM for 24 hours on different days, 4 days culture with M-CSF and RANKL, exposure in initial 24 hours, FIG. 4) is on record as “osteoclast differentiation was inhibited for the initial 24 hours”. In addition, the “osteoclast differentiation area ratio per total area (TRAP staining, Image J)” value in data set [3] (concentration of 0.5 uM, FIG. 2) is “effective osteoclast differentiation inhibitory ability”. The “degree of osteoclast differentiation by TRAP staining” value in data set [3] (treated together with RANKL, compared to other derivatives, FIG. 1) was “superior osteoclast differentiation inhibitory effects compared to other derivatives”. For the same molecule, in data set [4] (0.5 uM, F-actin size by Image J, FIG. 6), the “decrease of F-actin ring formation ability” value is reported as at least 50%. For the same molecule, in data set [4] (2 μM, FIG. 5), the “inhibition of RANKL-induced F-actin belt formation” value is listed as “excellent effects of inhibiting RANKL-induced F-actin belt formation”. Besides, the “amount of mRNA expression of osteoclast-specific genes AcP5 (TRAP), NFATc1, DC-STAMP, ATP6v0d2, MMP9 and CTSK” value in data set [5] is on record as “decreased”. In data set [6], the “reduction of bone resorption ability” value is recorded as “about 10%”. Moreover, the Ctsk protein expression result in data set [7] was “strongly inhibited even at a low concentration”. For the same molecule, in data set [8], the “bone density of tibia vs control (OVX)” value is on record as “higher” and the “bone volume of tibia vs control (OVX)” value is given as “higher”.
